Columns and labels:
male Sprague Dawley rats = test: rat intra rectal mustard oil model of visceral pain; format: in vivo; conditions: for reduction in behaviours compared to vehicle treated animals: behaviours counted 25 minutes; for statistical significance of reduction in behaviours vs vehicle: orally 60 minutes prior to mustard oil, all doses examined
Method: All behavioural responses consistent with the presence of pain were determined following intra rectal injection of mustard oil in male Sprague Dawley rats. Typical behavioural responses consistent with the presence of pain following intra-colonic mustard oil injection include: arching, abdominal lifting, abdominal tensing, stretching, extending the rear leg (when lying down), raising and lowering the testicles, tip-toeing and writhing.
Male Sprague Dawley rats (130 g-160 g) were briefly sedated with 50% oxygen/50% carbon dioxide and 0.2 ml of 3% mustard oil injected into the colorectum, 1.5 cm from the anus. The anus was plugged with vaseline and animals placed in observational cages to which they had previously been acclimatised for 45 minutes prior to mustard oil injection. The number of visceral pain related behaviours, which consisted primarily of abdominal arching, were counted over a 25 minute period and the animals culled by cervical dislocation.
In separate studies, the effects of alosetron (0.1, 0.3 and 1.0 mg/kg n=10 per group), gabapentin (10, 30 and 100 mg/kg n=10 per group) and amitriptyline (3, 10 and 30 mg/kg n=9-10 per group) or vehicle (saline for alosetron and amitriptyline 10% 1-Methyl-2-pyrolidone in saline for gabapentin n=10 per study) given sub cutaneously 15 minutes prior to injection of 3% mustard oil were examined on pain behaviour. Results in FIGS. 4, 5 and 6 are expressed as mean±sem percentage of behaviours compared to vehicle treated animals and were statistically compared to vehicle treated animals using a one way ANOVA with Dunnett's comparison, p<0.05 considered significant.
The effect of SB742457 (0.03, 0.1, 1.0, 3.0 and 10 mg/kg, n=10 per group for the 0.03, 0.1 and 10 mg/kg groups, and n=20 for the 1.0 and 3.0 mg/kg groups) or vehicle (saline n=20) given orally 60 minutes prior to injection of mustard oil (3% mustard oil, 70% ethanol in saline) were examined on pain behaviour. The total number of visceral pain related behaviours, which consisted primarily of abdominal arching, were counted over a 25 minute period and the animals culled by cervical dislocation. Behaviours were normalised as the percentage of the vehicle group mean and expressed as mean+/−sem. Data was combined from two studies and normalised as the percentage of the vehicle group mean for each individual study and expressed as mean+/−sem for both studies. Percentage of behaviours compared to vehicle treated animals were analysed statistically using a one way ANOVA with Dunnett's comparison, p<0.05 considered significant, FIG. 10.
The effect of SB792988A (0.03, 0.1, 0.3, 1.0, 3.0 and 10 mg/kg, n=9 for 1.0 mg/kg, n=10 per group for the 0.03, 0.1 and 3.0 mg/kg groups, n=20 per group for the 0.3 and 10 mg/kg groups) or vehicle (saline n=20) given orally 60 minutes prior to injection of mustard oil (3% mustard oil, 70% ethanol in saline) were examined on pain behaviour. The total number of visceral pain related behaviours, which consisted primarily of abdominal arching, were counted over a 25 minute period and the animals culled by cervical dislocation. Behaviours were normalised as the percentage of the vehicle group mean and expressed as mean+/−sem. Data was combined from two studies and normalised as the percentage of the vehicle group mean for each individual study and expressed as mean+/−sem for both studies. Percentage of behaviours compared to vehicle treated animals were analysed statistically using a one way ANOVA with Dunnett's comparison, p<0.05 considered significant, FIG. 11.

rats = test: FCA induced hypersensitivity rat model (intraplantar FCA, weight bearing); format: in vivo; conditions: 1 hour post dose; for weight bearing % reversal: 24 hrs after FCA; for effect on FCA induced hypersensitivity: p.o., intraplantar FCA
Method: (§1) Naïve weight bearing readings were taken. The hypersensitivity to pain was measured using the Rat incapacitance tester (Linton instruments). All rats (180-220 g) received an intraplantar injection of 100 ul of FCA (Freund's complete adjuvant) into the left hind paw. The FCA was sonicated for 15 minutes prior to use. 24 hrs after administration of the FCA, pre-dose weight bearing readings were taken. All animals were then ranked and randomised for dosing according to their FCA window (predose difference in grams—naïve difference in grams). Rats with FCA window less than 30 were excluded from the study.
Animals were then dosed orally with either vehicle, SB42457 (0.01, 0.1, 1 and 10 mg/kg p.o.) or celecoxib (10 mg/kg p.o.) as appropriate according to ranking and randomisation. Animals were assessed in the weight bearing apparatus 1 hour post dose.
The study was blind and randomised by FCA window using the Latin square method. % reversals were calculated by using the naïve, pre-dose and post dose values as follows: % Reversal=[(Pre-dose−Post-dose)/(Pre-dose−Naïve)]×100.
Graphs were plotted using Prism3. Statistical analysis was carried out using ANOVA and Fischer LSD test from statistical package Statistica 6.
In this study a positive control was also tested (celecoxib).
as §1, with “(200-220” for “(180-220”
Animals were then dosed orally with vehicle, SB-792988-A (0.01, 0.1, 1 and 10 mg/kg p.o.), SB-399885-A (10 mg/kg p.o.) or celecoxib (10 mg/kg p.o.) as appropriate according to ranking and randomisation. Animals were assessed in the weight bearing apparatus 1 hour post dose.
Graphs and were plotted using Prism3. Statistical analysis was carried out using ANOVA and Fischer LSD test from statistical package Statistica 6.

[1] = 0.03 mg/kg orally 60 minutes prior to mustard oil
[2] = 0.1 mg/kg orally 60 minutes prior to mustard oil
[3] = 1.0 mg/kg orally 60 minutes prior to mustard oil
[4] = 3.0 mg/kg orally 60 minutes prior to mustard oil
[5] = 10 mg/kg orally 60 minutes prior to mustard oil

| SMILES | reduction in behaviours compared to vehicle treated animals (male Sprague Dawley rats; [1]) | reduction in behaviours compared to vehicle treated animals (male Sprague Dawley rats; [2]) | reduction in behaviours compared to vehicle treated animals (male Sprague Dawley rats; [3]) | reduction in behaviours compared to vehicle treated animals (male Sprague Dawley rats; [4]) | reduction in behaviours compared to vehicle treated animals (male Sprague Dawley rats; [5]) | statistical significance of reduction in behaviours vs vehicle (male Sprague Dawley rats) | weight bearing % reversal (rats; 0.01 mg/kg p.o., Table 5) | weight bearing % reversal (rats; 0.1 mg/kg p.o., Table 5) | weight bearing % reversal (rats; 1 mg/kg p.o., Table 5) | weight bearing % reversal (rats; 10 mg/kg p.o., Table 5) | effect on FCA induced hypersensitivity (rats) | reduction in behaviours compared to vehicle treated animals (male Sprague Dawley rats; 0.3 mg/kg orally 60 minutes prior to mustard oil) | weight bearing % reversal (rats; 0.01 mg/kg p.o., Table 7) | weight bearing % reversal (rats; 0.1 mg/kg p.o., Table 7) | weight bearing % reversal (rats; 1 mg/kg p.o., Table 7) | weight bearing % reversal (rats; 10 mg/kg p.o., Table 7) |
| --- | --- | --- | --- | --- | --- | --- | --- | --- | --- | --- | --- | --- | --- | --- | --- | --- |
| O=S(=O)(c1ccccc1)c1cnc2c(N3CCNCC3)cccc2c1 [SB742457, 3-Phenylsulfonyl-8-piperazin-1-yl-quinoline] | 56% | 56% | 44% | 50% | 62% | statistically significant from vehicle treated animals at all doses examined | 27.68 ± 6.39% | 53.09 ± 5.68% | 60.17 ± 6.73% | 76.97 ± 7.17% | dose-dependent reversal |  |  |  |  |  |
| Cl.O=S(=O)(c1cccc(F)c1)c1cnc2c(N3CCNCC3)cccc2c1 [SB792988A, 3-[(3-Fluorophenyl)sulfonyl]-8-(1-piperazinyl)quinoline Hydrochloride] | 38% | 40% | 55% | 65% | 74% | statistically significant from vehicle treated animals at all doses examined |  |  |  |  | dose-dependent reversal | 42% | 22.91 ± 4.13% | 22.11 ± 5.18% | 38.76 ± 5.88% | 67.00 ± 5.08% |

From patent US20100041672A1, “USE OF QUINOLINE DERIVATIVES IN THE TREATMENT OF PAIN AND IRRITABLE BOWEL SYNDROME” (GLAXO GROUP LIMITED, priority 2007, published 2010)
